This note sets out measurements from patent US8614222B2, “Methods of preventing and treating low bone mass diseases” (The Trustees of Columbia University in the City of New York, priority 2008, dated 2013).

Common to all, as to format: in vivo
Series [1] concerns serum serotonin. Description: Serum serotonin levels in WT mice fed LP-533,401 (dose response). The procedure: This decrease in serum serotonin levels reached 70% of control values when using 250 mg/kg of the compound while no change in brain serotonin content was observed (FIG. 15). […] Ovariectomized rodents present, as post-menopausal women do (Rodan & Martin, 2000, Science 289:1508-1514), a marked increase in bone resorption not compensated by a similar increase in bone formation.
(§1) Blood samples were collected from mice and rats through cardiac puncture under isoflurane anesthesia, kept on ice for 5 min, and centrifuged at 13,000 rpm for 10 min at 4° C. Serum samples were stored at −80° C. until hormonal analyses were performed. Serum serotonin levels were quantified by ELISA (Serotonin kit, Fitzgerald) while serotonin levels in brain regions were quantified by HPLC as described previously (Mann et al., 1992, Arch. Gen. Psychiatry 49:442-446). Serum levels of total deoxypyridinoline (DPD) cross-links was measured using the Merta tDPD kit (Quidel corp. Sandiago, Calif.) and Osteocalcin using Rat and Mouse Ocn IRMA kit.

Series [2] has as its system brain serotonin. Description: Brain serotonin content in wild-type mice (HPLC). Particulars: WT mice, 250 mg/kg orally. How it is done:
FIG. 15. HPLC analysis of serotonin content in the brain of wild-type mice that received vehicle or LP-533,401 (250 mg/kg, orally) for 1 day.
as §1

Series [3] deals with ovariectomized mice. Nature of the series: Gastrointestinal homeostasis and blood coagulation in ovariectomized mice. Particulars: OVX mice, 6 weeks.
In series [4] the test system is ovariectomized rats. Nature of the series: Curative regimen in ovariectomized rats (histomorphometry, μCT, biomechanical testing). Particulars: OVX rats. The procedure: Virgin female Sprague-Dawley rats (National Institute of Nutrition, Hyderabad, India) were obtained at 3 months of age and allowed to acclimate to the facility for 1 week before study initiation and surgical procedures. They were housed under a 12 hour:12 hour light:dark cycle and provided throughout the study with water and PMI (Purina Mills, Incorporated) Certified Rodent Laboratory Chow. Rats were subjected to either bilateral ovariectomy or a sham operation under isoflurane anesthesia. […] The rats were divided into two groups of sham-operated and ovariectomized animals and left untreated for 3 weeks to allow bone loss to occur. One group of sham and one group of ovariectomized rats (n=10/group) were killed as baseline controls to determine bone loss before the start of LP-533,401 or PTH administration. The remaining animals (n=5-10/group) received vehicle or LP-533,401 (250 mg/kg/day) by gavage, or recombinant human PTH (80 ug/kg) by daily subcutaneous (s.c.) injection for 4 weeks. The 80 ug/kg dose of PTH was selected as being optimal for reversal of ovariectomy-induced bone loss in rats based on previous studies, while the dose of LP-533,401 was selected based on the effective dose for bone loss-reversal observed in mice experiments. To label bone-forming surfaces, animals were injected s.c. with calcein (8 mg/kg) at 10 and 3 days before death. Animals were killed by an overdose of Isofluorane anesthesia. The right tibia and lumbar vertebra 2 (L2) were collected, cleaned of excess soft tissue, fixed overnight in 10% formalin and processed for μCT or histomorphometric analysis. The right femur and L3 were cleaned of excess tissue and stored at −20° C. prior to biomechanical testing.
(§2) Bone histomorphometry was performed as previously described (Duey et al., 2000, Cell 100:197-207; Takeda et al., 2002, Cell 111:305-317; Parfitt et al., 1987, J. Bone Miner. Res. 2:595-610). Briefly, lumbar vertebrae were dissected, fixed for 24 hr in 10% formalin, dehydrated in graded ethanol series, and embedded in methyl methacrylate resin according to standard protocols (Parfitt et al., 1987, J. Bone Miner. Res. 2:595-610). Von Kossa/Von Gieson staining was performed using 7 μm sections for bone volume over tissue volume (BV/TV) measurement. Bone formation rate (BFR) was analyzed by the calcein double-labeling method (Ducy et al., 2000, Cell 100:197-207). Calcein (Sigma Chemical Co., St. Louis, Mo.) was dissolved in calcein buffer (0.15 M NaCl, 2% NaHCO3) and injected twice at 0.125 mg/g body weight on day 1 and 4, and then mice were killed on day 6. Unstained 4 μm sections were used for bone formation rate (BFR) measurements. For the analysis of parameters of osteoblasts and osteoclasts, 4 μm sections were stained with toluidine blue and tartrate-resistant acid phosphatase (TRAP), respectively (2). Histomorphometric analyses were performed using the Osteomeasure Analysis System (Osteometrics, Atlanta, Ga.).
Trabecular bone architecture of proximal tibia was assessed using a micro computed tomography (μCT) system (VivaCT 40, SCANCO Medical AG, Bassersdorf, Switzerland). Tibia bone specimen was stabilized with gauze in a 2 ml centrifuge tube filled with 70% ethanol and fastened in the specimen holder of the μCT scanner. One hundred μCT slices, corresponding to a 1.05 mm region distal from the growth plate, were acquired at an isotropic spatial resolution of 10.5 μm. A global thresholding technique was applied to binarize gray-scale μCT images where the minimum between the bone and bone marrow peaks in the voxel gray value histogram was chosen as the threshold value. The trabecular bone compartment was segmented by a semi-automatic contouring method and subjected to a model-independent morphological analysis (Hildebrand et al., 1999, J. Bone Miner. Res. 14:1167-1174) by the standard software provided by the manufacture of the μCT scanner. […]

For series [5], the system named is naive mice. Nature of the series: Histomorphometric analysis of vertebrae of naive mice. As to conditions: naive mice (FIG. 20A: 250 mg/kg/day orally, 6 weeks). How it is done:
FIG. 20. (A) Histomorphometric analysis of vertebrae of 12 week-old mice that received vehicle or LP-533,401 (250 mg/kg/day, orally) for 6 weeks. (B-E) Gastrointestinal transit rate (B), colon motility (C), efficiency of gastric emptying (D) and blood coagulation rate (E) in 18 week-old ovariectomized (OVX) mice that received orally vehicle or indicated doses of LP-533,401 for 6 weeks.
as §2, with “For the analysis of parameters of osteoblasts and osteoclasts, 4 μm sections were stained with toluidine blue and tartrate-resistant acid phosphatase (TRAP), respectively (2). Histomorphometric analyses were performed using the Osteomeasure Analysis System (Osteometrics, Atlanta, Ga.).” left out

Where [6] appears, read: long bones, μCT, all doses tested.
Setting [7] is: LP-533,401 250 mg/kg/day, PTH 80 μg/kg/day.

As to `Nc1nc(OC(c2ccc(-c3cccc(F)c3)cc2)C(F)(F)F)cc(-c2ccc(C[C@H](N)C(=O)O)cc2)n1` (stereo partly drawn) [LP-533401, (2S)-2-amino-3-(4-(2-amino-6-(2,2,2-trifluoro-1-(3′-fluorobiphenyl-4-yl)ethoxy)pyrimidin-4-yl)phenyl)propanoic acid], in series [1] (WT mice fed with increasing amounts), the “serum serotonin levels, dose response” value is “dose-dependent decrease”. Also, the “decrease in serum serotonin levels” value in series [1] (WT mice, 250 mg/kg LP-533,401) was 70 % of control values. Besides, the brain serotonin content entry in series [2] is “no change”. Besides, in series [3], the “coagulation rates versus vehicle” value is “similar”. Further, in series [3] (up to 250 mg/kg/day), the colonic mobility entry is given as “None of these parameters were affected”, the gastric emptying result was “None of these parameters were affected” and the total gastrointestinal transit result is recorded as “None of these parameters were affected”. The “number of osteoclasts per bone surface (OcS/BS) versus untreated ovariectomized rats” value in series [4] is “similar”. The “ovariectomy-induced bone loss, histomorphometric analysis of vertebra” value in series [4] (given 3 or 12 weeks post-ovariectomy for 4 weeks, even at 25 mg/kg/day) is “fully rescued”. In addition, the “efficiency compared with PTH (80 μg/kg/day, s.c.)” value in series [4] (long bones, μCT) was “as efficient as the PTH regimen”. Besides, in series [4] (setting [6]), the “trabecular spacing (Tb.Sp*)” value is on record as “reduced” and the “trabecular thickness (Tb.Th*)” value was “significantly increased”. Besides, in series [4] (long bones, μCT, all doses tested (25, 100, 250 mg/kg/day)), the “trabecular number (Tb.N*)” value is given as “significantly increased”. In series [4] (vertebra), the bone formation rate result was “significant increase” and the osteoblast number result is recorded as “significant increase”. Further, the “bone mass in long bones versus vehicle-treated controls” value in series [4] (μCT) is listed as “increasing, in a dose-dependent manner”. Moreover, in series [4] (setting [7]), the “decrease in cortical thickness at the femur mid-shaft” value is listed as “equally rescued”; the “maximal load (femur, vertebra)” value is on record as “restored to values seen in sham-operated rats”; the “stiffness (femur, vertebra)” value was “restored to values seen in sham-operated rats”. Moreover, in series [5], the “increase in bone mass” value is listed as “also observed in naive mice”.
